Data from a melting point compilation (Tetko et al.; mined from patent text by program, amines drawn as free bases though some values may be those of a salt).

SMILES | melting point [°C]
O=c1[nH]c(NCCSCc2nccs2)nnc1Cc1cccnc1 | 158 to 159
CCOC(=O)c1ccc(OCCCCCCCCCCBr)cc1 | 41 to 42
CCCOc1cc(CCCO)n(Cc2ccc(F)cc2F)n1 | 66 to 67
NS(=O)(=O)c1ccc(-c2noc(-c3cnn4c(C(F)F)cc(-c5ccc(C(F)(F)F)cc5)nc34)n2)cc1 | 283
CCCCC(=O)N(CCCOCc1ccccc1)Cc1ccc(-c2ccccc2-c2nnn[nH]2)cc1 | 112 to 115
Cc1cccc2c1N(CC(=O)N1CC3CCC(CC3)C1)C(=O)C(NC(=O)Nc1cccc(C=NO)c1)N=C2c1ccccc1F (stereo unspecified) | 196 to 199
Fc1ccccc1-c1ccc2nnn(Cc3ccc4ncccc4c3)c2n1 | 164 to 166
OCC(O)Cn1cnc2c(Cl)nc3ccccc3c21 (stereo unspecified) | 223 to 225
COC(=O)NCC(=CF)c1ccccc1 | 73 to 74
CCCCNc1cc(CNC(C)=O)cc(S(N)(=O)=O)c1Oc1ccccc1 | 190 to 191
CCc1noc(-c2cn(-c3cccc(OCCc4ccccc4)c3)cn2)n1 | 124 to 125
NC(=O)c1c(C(F)(F)F)ccc(Cl)c1Cl | 118 to 120
O=C(O)CCc1ccc(OCc2ccc(Oc3ccccc3)cc2)c(F)c1 | 123 to 125
O=S(=O)(c1ccccc1)n1ccc2cnccc21 | 127
NP(N)(=O)NCCCBr | 60 to 65
COc1ccc(-c2cc(=O)n(Cc3ccc(Cl)cc3Cl)nc2-c2ccc(OC)cc2)cc1 | 141
N#CC(C#N)=C(NCCN1CCCCC1)N1CCC(N2CCCCC2)CC1 | 198 to 200
OCc1cccc(Cc2c[nH]cn2)c1O | 152 to 155
Fc1ccc(CSc2nnc(-c3ccc4c(c3)CCO4)o2)cc1C(F)(F)F | 94 to 95
CCCCc1c(OCCN2CCOCC2)c2c(OCCN3CCOCC3)cc(OCCN3CCOCC3)cc2oc1=O | 131
COc1ccc2sc3ccccc3c2c1 | 54 to 55
CCOC(=O)C1(CC(N)=O)C(=O)N(Cc2ccc(Br)cc2F)C(=O)c2cccn21 (stereo unspecified) | 190 to 192
CC(C)(C)c1ccc(OP2N(C(C)(C)C)P(Oc3ccc(C(C)(C)C)cc3C(C)(C)C)N2C(C)(C)C)c(C(C)(C)C)c1 (stereo unspecified) | 205 to 210

SMILES | melting point [°C]
Cc1nc2nc(C(F)(F)F)cc(-c3cccnc3)n2n1 | 195 to 197
ClCc1nc2ccccc2s1 | 34
CCOCCN(c1cccc2cc(C(N)=O)[nH]c12)S(=O)(=O)c1cccs1 | 135
Clc1ccccc1Oc1ccnc2c(Cl)cccc12 | 56 to 58
Cc1ccc(C2OC(CO)C(O)C(O)C2O)cc1Cc1ccc(-c2ccc(F)cc2)s1 (stereo unspecified) | 106 to 107
Cc1nc(C(Cl)(Cl)Cl)nc(OC(=O)N(C)C)c1Cl | 87 to 88
CS(=O)(=O)N1CCN(S(=O)(=O)C=Cc2ccccc2)C(C(=O)NO)C1 (stereo unspecified) | 94 to 99
O=C1N(c2c(Cl)cccc2Cl)Cc2cnc(Nc3cccc4ccccc34)nc2N1c1ccccc1 | 213 to 214
CS(=O)(=O)c1ccc(-c2cc(CO[N+](=O)[O-])nn2Cc2ccccc2)cc1 | 94 to 96
CN(C)c1nccc(N2CCN(C=O)CC2)n1 | 116
C[C@](O)(COc1ccc(Cl)c(F)c1)C(=O)Nc1ccc(C#N)c(C(F)(F)F)c1 | 132 to 134
CC(=O)N[C@H]1C(n2cc(Cl)cnc2=O)O[C@H](CO)[C@@H](O)[C@@H]1O (stereo partly specified) | 156 to 158
CCCCCCCCCCCCCCCCCCNC(=O)OCC(CNS(=O)(=O)CCCI)Oc1ccon1 (stereo unspecified) | 69 to 71.5
CCOC(=O)c1cn(CC)nc1O | 109 to 110
CC(CC(=O)c1ccccc1)C(=O)N1CSCC1C(=O)O (stereo unspecified) | 182 to 183
CCCCCSCCSCCSCCCCC | < 50
CCn1c(=O)n(CCc2ccc(C)cc2)c(=O)n(C(C)(C)C)c1=O | 64
CCCNC(=O)Nc1ccccc1Nc1ccc(C(=O)c2ccccc2)cc1 | 167 to 169
CCCCc1oc2ccccc2c1C(=O)NCc1ccc2c(Br)c(OC(Cc3ccccc3)C(=O)O)ccc2c1 (stereo unspecified) | 125 to 130
Cn1ncc(/C=C/C(=O)Nc2ccc(CCc3cscn3)cc2)c1-c1ccc(F)cc1 | 211 to 212
CC(F)(F)c1cccc(C[C@H]2NC(=O)O[C@H]2c2ccc(F)cc2)c1 (racemic) | 143 to 144
Oc1ccccc1-c1nc(-c2ccc(-c3ccccc3)cc2)nc(-c2ccc3ccccc3c2)n1 | 227 to 239

Results, then the compound that gave them:

melting point [°C] | SMILES
167 to 168 | Cc1cccc(OC2CN(C(N)=O)C2)c1
183 to 184 | O=C(Nc1cccc(C(F)(F)F)c1)c1cccc2cc(Oc3cc(CO)ncn3)ccc12
135 to 139 | CC(C)NC1=Nc2cccnc2SC1
166 to 170 | Cc1ccc2c(=O)c3cc(F)ccc3sc2c1
149 | CC(=O)n1c(=O)n(CCN2CCC(CC(=O)c3ccc(F)cc3)CC2)c2ccccc21
220 to 222 | COc1cccc(COc2ccc3c(c2)C=C(C(=O)O)CCS3(=O)=O)c1
144 | CC1CCC(C(C)C)C(OC(=O)N2CC(=O)N(C)c3ccc(Cl)cc3C2c2ccccc2)C1 (stereo unspecified)
271 to 274 | CNc1cc(NS(=O)(=O)c2ccc(NC(C)=O)cc2)nc(N2CCCC2)n1
48 to 50 | COCOc1c(OC)cc(C=O)c2cccc(C)c12
120 to 121 | CCCNCc1cnc2c(C)c(NC(=O)c3ccc(OC[C@@H]4CCCO4)cc3F)ccc2c1
163 to 164 | Cc1c2n(c(=O)c3cc(OC(=O)CN)cc(OC(=O)CN)c13)CCCC2
192 to 195 | Cc1sc2c(c1CCN1CCC(c3noc4cc(F)ccc34)CC1)CCN(C(=O)c1ccccc1)C2
113 | N#Cc1cc(N)ccc1N1CCCC1
191 to 193 | O=C(O)COc1cc(Cl)ccc1C(=O)NCc1cc(C(F)(F)F)cc(C(F)(F)F)c1
205 to 207 | COc1ccc(C=CC(=O)C2C(=O)C=C(C)OC2=O)cc1 (stereo unspecified)
146 to 147 | CCOC(=O)Cc1nc2cc(OC)c(OC)cc2c(-c2ccc(OC)c(OC)c2)c1C(=O)OCC
249 to 250 | CCOC(=O)c1ncc2[nH]c3c(c2c1COC)C(=O)CCC3
125 | COc1cc(C=C2C(=O)CCc3ccc([N+](=O)[O-])cc32)c([N+](=O)[O-])cc1OC
253 to 254 | CC(C)(C)OC(=O)N1CCC(CC(O)c2c3c(nn2-c2ccccc2)c(=O)[nH]c2ccccc23)CC1 (stereo unspecified)

melting point [°C] | SMILES
128 to 131 | COc1ccc(Nc2cc(C)nc(SCC#N)n2)cc1
232 to 233 | O=C(NCc1ccccc1)Nc1nnc(-c2ccc(CN3CCCCCC3)s2)s1
104 to 105 | CCOC(=O)c1cccc(N)c1NCc1ccc(-c2ccccc2C#N)cc1
240 to 241 | O=c1oc2c(c(O)c1C1(c3ccccc3)CCC1)CCCCCC2
62 to 70 | Nc1ncccc1C(=O)NCC1CCN(C[C@H]2COc3cccc(Cl)c3O2)CC1
> 260 | O=C(O)c1cnc2cc(O)cc(O)c2c1
57 to 58 | CCOC(=O)C(=O)CC(=O)c1cccc(Cl)c1Cl
173 to 174 | Cc1ccc(C)c(CN(c2ncnc3c2cnn3C2CCCO2)C2CCCC2)c1 (stereo unspecified)
276 to 278 | Cn1c(=O)[nH]c(=O)c2c1ncn2CC1OCCO1
166 to 167 | CC(C)(C)C(NC(=O)c1ccc(Cl)cc1)NS(=O)(=O)Nc1cccnc1 (stereo unspecified)
59 to 60 | CC(=O)NCc1ccc2ccn(C3CCN(CCCCc4ccc(F)cc4)CC3)c2c1
177 to 179 | Cc1c(C)c2c(c(C)c1NC=O)CC(C)(C)O2
221 to 222 | O=C(O)C=C1SC(=Nc2ccc(Cl)c(Cl)c2)N(c2ccc(Cl)c(Cl)c2)C1=O
127 to 134 | CCOC(=O)C(=CN[C@@H](C)CO)C(=O)c1c(F)c(F)c(Br)c(F)c1F
71 | Clc1ccc(C(CCC2CCCC2)Cn2cncn2)c(Cl)c1 (stereo unspecified)
150 to 154 | CCOc1cccc(COc2ccc3c(c2)C=C(C(=O)O)CCS3(=O)=O)c1
115 to 116 | O=C(CCCN1CCN(c2cc(-c3ccc(F)cc3)c3c(n2)CCC3)CC1)c1ccc(F)cc1
119 to 121 | Cc1cc(-c2nncc3c(C(C)(C)C)c(OCc4ccncc4)nn23)no1
174 | CC(=O)OC1CSC(Oc2cncc(Br)c2)C(OC(C)=O)C1OC(C)=O (stereo unspecified)

melting point [°C] | SMILES
175 to 180 | COc1ccc(CN2Cc3cc(N(C)C)ccc3N=C2N)cc1
102 to 104 | CC(=O)c1nc2ccc(OC(C)C)cc2cc1OCc1ccccc1
170 to 173 | O=C1CCCc2ccc(O)cc21
184 to 189 | CC(C)(C)NC(=O)N1CCn2c(Br)c(-c3cccc(F)c3)c(C(N)=O)c2C1
246 | Cc1ccncc1-n1nc(C)c(CC(=O)O)c1-c1ccccc1
148 to 150 | CCC/C=C\c1nc(Cl)c(CO)n1Cc1ccc(-c2ccccc2)c(C(=O)O)c1
145 to 148 | Cc1ccc(Oc2ccc(NN)cc2)c(O)c1
153 to 155 | COC(=O)c1cc(N2CCN([C@H]3CC[C@@H](c4cn(C)c5ccc(C#N)cc54)CC3)CC2)c2ncccc2c1
62 to 63 | Cc1ccccc1COC1COC(CCl)OC1 (stereo unspecified)
206 to 207 | Cc1cccc(C)c1NC(=O)c1ccc(C(F)(F)F)cc1
253 to 254 | CC(=O)c1ccc2c(c1)ncn2-c1cccc(-c2cncnc2)c1
57 to 58 | Cc1cc(C)c2c(c1)C(NC(=O)c1conc1C)CCC2 (stereo unspecified)
27 to 29 | CCC(=O)OCc1c(C)cc([N+](=O)[O-])c(NC(CC)CC)c1[N+](=O)[O-]
214 to 216 | Cc1cc2c(O)nccc2s1
129 to 130 | CCOC(=O)c1[nH]nnc1Nc1ccc(C)cc1
196 to 197 | Cc1c(C(=O)Nc2ccc(N3CCCCC3)c(C#N)c2)cnn1-c1ccc(F)cc1
218 to 220 | COc1cc(OCC2CCCO2)ccc1/C=C/c1cc(/C=C/c2ccc3cc[nH]c3c2)n[nH]1 (stereo unspecified)
285 to 287 | CC1(N)CN(c2nc3c(cc2F)c(=O)c(C(=O)O)cn3C2CC2)C1
